Test results as given in ChEMBL document CHEMBL5257059, “Pyridine-Based 1,2,4-Triazolo-Tethered Indole Conjugates Potentially Affecting TNKS and PI3K in Colorectal Cancer” (ACS Med Chem Lett, 2023).
pIC50: −log10 of the molar value.

How the values were obtained:
Assay type in all cases: functional, cell-based
Caco-2 = assay: Antiproliferative activity against human Caco-2 cells assessed as inhibition of cell growth incubated for 24 hrs by MTT assay; settings: Caco-2, 24 h
DLD-1 = assay: Antiproliferative activity against human DLD-1 cells assessed as inhibition of cell growth incubated for 24 hrs by MTT assay; settings: DLD-1, 24 h
HT-29 = assay: Antiproliferative activity against human HT-29 cells assessed as inhibition of cell growth incubated for 24 hrs by MTT assay; settings: HT-29, 24 h
A549 = assay: Antiproliferative activity against human A549 cells assessed as inhibition of cell growth incubated for 24 hrs by MTT assay; settings: A549, 24 h
A 172 = assay: Antiproliferative activity against human A-172 cells assessed as inhibition of cell growth incubated for 24 hrs by MTT assay; settings: A 172, 24 h
[1] = Antiproliferative activity against human Tera-1 cells assessed as inhibition of cell growth incubated for 24 hrs by MTT assay; settings: Tera-1, 24 h

Structure (SMILES)	pIC50 (Caco-2)	pIC50 (DLD-1)	pIC50 (HT-29)	pIC50 (A549)	pIC50 (A 172)	pIC50 [1]
CCCCn1c(SCCc2c[nH]c3ccccc23)nnc1-c1ccncc1	< 4.52	< 4.52	< 4.52	< 4.52	< 4.52	< 4.52
Cc1cccc(C)c1-n1c(SCCc2c[nH]c3ccccc23)nnc1-c1ccncc1	< 4.52	< 4.52	< 4.52	< 4.52	< 4.52	< 4.52
CCCn1c(SCCc2c[nH]c3ccccc23)nnc1-c1ccncc1	< 4.52	< 4.52	< 4.52	< 4.52	< 4.52	< 4.52
c1ccc(Cn2c(SCCc3c[nH]c4ccccc34)nnc2-c2ccncc2)cc1	< 4.52	4.59	< 4.52	4.86	5.09	4.97
Cc1ccc(-n2c(SCCc3c[nH]c4ccccc34)nnc2-c2ccncc2)cc1	4.75	4.78	< 4.52	4.87	4.69	< 4.52
Brc1ccccc1-n1c(SCCc2c[nH]c3ccccc23)nnc1-c1ccncc1	< 4.52	< 4.52	< 4.52	5.40	< 4.52	< 4.52
O=[N+]([O-])c1ccc(-n2c(SCCc3c[nH]c4ccccc34)nnc2-c2ccncc2)cc1	< 4.52	< 4.52	< 4.52	< 4.52	4.77	< 4.52
Fc1ccc(-n2c(SCCc3c[nH]c4ccccc34)nnc2-c2ccncc2)cc1	4.99	4.97	5.24	5.09	< 4.52	< 4.52
O=c1[nH]cc(F)c(=O)[nH]1 [FLUOROURACIL]			5.27			
Clc1ccc(-n2c(SCCc3c[nH]c4ccccc34)nnc2-c2ccncc2)cc1	4.60	4.66	< 4.52	4.73	4.63	< 4.52
c1ccc(-n2c(SCCc3c[nH]c4ccccc34)nnc2-c2ccncc2)cc1	< 4.52	4.72	< 4.52	< 4.52	4.57	< 4.52
C=CCn1c(SCCc2c[nH]c3ccccc23)nnc1-c1ccncc1	< 4.52	< 4.52	< 4.52	< 4.52	< 4.52	< 4.52
Clc1cccc(-n2c(SCCc3c[nH]c4ccccc34)nnc2-c2ccncc2)c1	4.87	4.96	5.14	< 4.52	< 4.52	< 4.52
Brc1cccc(-n2c(SCCc3c[nH]c4ccccc34)nnc2-c2ccncc2)c1	4.98	4.82	4.91	4.84	4.83	4.61
Cc1ccccc1-n1c(SCCc2c[nH]c3ccccc23)nnc1-c1ccncc1	< 4.52	< 4.52	< 4.52	< 4.52	< 4.52	< 4.52
